These results are taken from ChEMBL document CHEMBL6083240, “Design, synthesis and biological evaluation of arylpropylamine derivatives as potential multi-target antidepressants” (Bioorg Med Chem, 2024).

Data set [1] concerns the target Sodium-dependent serotonin transporter (Rattus norvegicus, UniProt P31652). Briefly: Displacement of [3H]-paroxetine from SERT in rat cerebral cortex incubated for 10 mins by liquid scintillation counting method. It is filed as tissue-based. In general terms: Loss of bound radioactivity is the signal in a displacement assay; it reports binding, not function.
Data set [2] deals with Transporter (Rattus norvegicus, UniProt Q63380). As to the kind of experiment: Displacement of [3H]-nisoxetine from NET in rat hippocampal membrane incubated for 8 hrs by liquid scintillation counting method. It is filed as cell membranes, Hippocampus.
Data set [3] addresses 5-hydroxytryptamine receptor 2C (Homo sapiens, UniProt P28335). As to the kind of experiment: Antagonist activity at 5-HT2C in HEK293 cells incubated for 60 mins by FLIPR assay. It is filed as cell-based.
Data set [4] addresses T1, 5-hydroxytryptamine receptor 2C (Homo sapiens) (UniProt P28335).
T1 sequence (whole entry): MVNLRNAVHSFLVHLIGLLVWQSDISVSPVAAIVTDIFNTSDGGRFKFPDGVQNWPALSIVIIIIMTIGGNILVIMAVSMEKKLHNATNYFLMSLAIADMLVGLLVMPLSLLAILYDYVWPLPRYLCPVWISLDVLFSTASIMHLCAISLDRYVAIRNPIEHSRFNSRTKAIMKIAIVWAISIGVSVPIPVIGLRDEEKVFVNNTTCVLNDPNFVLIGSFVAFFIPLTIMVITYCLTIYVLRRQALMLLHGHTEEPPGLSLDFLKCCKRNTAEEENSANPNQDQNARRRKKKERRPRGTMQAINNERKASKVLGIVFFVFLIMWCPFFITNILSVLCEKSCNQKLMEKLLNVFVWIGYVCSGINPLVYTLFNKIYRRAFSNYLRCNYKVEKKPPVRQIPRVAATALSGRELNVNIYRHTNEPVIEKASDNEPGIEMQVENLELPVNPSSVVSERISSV
Briefly: Antagonist activity at 5-HT2C in HEK293 cells at 10 uM incubated for 60 mins by FLIPR assay relative to control. The data set is classed as cell-based. Also on record: scale not given: the % may be the effect or the level left. To be noted: filed as antagonist.

Data set [5] addresses T2, Alpha-1A adrenergic receptor (Rattus norvegicus, UniProt P43140).
T2 sequence (P43140 whole entry): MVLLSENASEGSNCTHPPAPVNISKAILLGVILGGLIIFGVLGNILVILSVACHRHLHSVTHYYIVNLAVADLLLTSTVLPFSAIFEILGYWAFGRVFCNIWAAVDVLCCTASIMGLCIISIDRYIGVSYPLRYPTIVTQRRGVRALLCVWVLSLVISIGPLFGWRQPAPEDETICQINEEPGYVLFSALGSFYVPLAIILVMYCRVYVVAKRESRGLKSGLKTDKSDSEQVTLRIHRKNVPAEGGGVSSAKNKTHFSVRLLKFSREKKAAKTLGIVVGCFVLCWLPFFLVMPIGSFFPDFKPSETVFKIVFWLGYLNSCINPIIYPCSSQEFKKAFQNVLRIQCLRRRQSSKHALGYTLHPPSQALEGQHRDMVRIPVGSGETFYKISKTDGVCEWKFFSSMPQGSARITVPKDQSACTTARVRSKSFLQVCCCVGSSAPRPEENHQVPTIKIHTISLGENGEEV
Briefly: Displacement of [3H]-prazosin from adrenergic alpha-1 receptor in rat cerebral cortex incubated for 60 mins by liquid scintillation counting method. It is filed as toxicity, tissue-based.

Data set [6] addresses T3, 5-hydroxytryptamine receptor 2C (Rattus norvegicus, UniProt P08909).
T3 sequence (P08909 whole entry): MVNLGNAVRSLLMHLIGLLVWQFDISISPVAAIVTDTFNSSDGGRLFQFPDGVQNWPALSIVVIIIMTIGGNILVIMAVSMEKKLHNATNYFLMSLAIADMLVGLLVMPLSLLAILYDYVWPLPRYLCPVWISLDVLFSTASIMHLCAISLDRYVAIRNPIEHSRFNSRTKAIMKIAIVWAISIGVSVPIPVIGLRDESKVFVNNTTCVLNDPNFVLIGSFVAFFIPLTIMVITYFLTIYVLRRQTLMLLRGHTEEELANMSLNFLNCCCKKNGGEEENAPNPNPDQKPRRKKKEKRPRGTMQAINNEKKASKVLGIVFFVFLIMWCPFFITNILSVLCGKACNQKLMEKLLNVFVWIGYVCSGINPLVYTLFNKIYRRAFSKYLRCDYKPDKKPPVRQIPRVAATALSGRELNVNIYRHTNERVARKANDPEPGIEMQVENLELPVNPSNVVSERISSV
Briefly: Displacement of [3H]-mesulergine from 5-HT2C in rat cerebral cortex incubated for 15 mins by liquid scintillation counting method. The data set is classed as tissue-based.

Data set [7] concerns the target 5-hydroxytryptamine receptor 2A (Rattus norvegicus, UniProt P14842). Briefly: Displacement of [3H]-ketanserin from 5-HT2A in rat cerebral cortex incubated for 15 mins by liquid scintillation counting method. It is filed as tissue-based.
Data set [8] concerns histamine H1 receptor. As to the kind of experiment: Displacement of [3H]-pyrilamine from H1 receptor in guinea pig cerebellum membrane incubated for 60 mins by liquid scintillation counting method. It is filed as toxicity, cell membranes, Cavia porcellus. The settings on record: probe [3H]-pyrilamine.
Data set [9] addresses Voltage-gated inwardly rectifying potassium channel KCNH2 (Homo sapiens, UniProt Q12809). Briefly: Inhibition of human ERG expressed in HEK293 cells by whole-cell patch clamp method. The data set is classed as toxicity, cell-based. (The patch-clamp technique gives a direct electrical read-out from membranes.)
Data set [10] has as its target Sodium-dependent serotonin transporter (Rattus norvegicus) (UniProt P31652). As to the kind of experiment: Antagonist activity at rat cerebral cortex membrane SERT at 10 uM incubated for 10 mins in presence of [3H]5-HT relative to control. The data set is classed as cell membranes. The arrangement: scale not given: the % may be the effect or the level left. The settings on record: filed as antagonist.

Data set [11] addresses T4, 5-hydroxytryptamine receptor 2A (Homo sapiens, UniProt P28223). As to the kind of experiment: Agonist activity at 5-HT2A in HEK293 cells at 10 uM incubated for 60 mins by FLIPR assay relative to control. The data set is classed as functional, cell-based.
Data set [12] addresses T4, 5-hydroxytryptamine receptor 2A. As to the kind of experiment: Antagonist activity at 5-HT2A in HEK293 cells at 10 uM incubated for 60 mins by FLIPR assay relative to control. The data set is classed as cell-based. The arrangement: scale not given: the % may be the effect or the level left. To be noted: filed as antagonist.

For orientation: Ki means the equilibrium dissociation constant of an inhibitor or competing ligand from its target. Usually IC50 stands for the point on the concentration scale where inhibition reaches its midpoint.

5-hydroxytryptamine receptor 2A (Rattus norvegicus, UniProt P14842), sequence (P14842 whole entry): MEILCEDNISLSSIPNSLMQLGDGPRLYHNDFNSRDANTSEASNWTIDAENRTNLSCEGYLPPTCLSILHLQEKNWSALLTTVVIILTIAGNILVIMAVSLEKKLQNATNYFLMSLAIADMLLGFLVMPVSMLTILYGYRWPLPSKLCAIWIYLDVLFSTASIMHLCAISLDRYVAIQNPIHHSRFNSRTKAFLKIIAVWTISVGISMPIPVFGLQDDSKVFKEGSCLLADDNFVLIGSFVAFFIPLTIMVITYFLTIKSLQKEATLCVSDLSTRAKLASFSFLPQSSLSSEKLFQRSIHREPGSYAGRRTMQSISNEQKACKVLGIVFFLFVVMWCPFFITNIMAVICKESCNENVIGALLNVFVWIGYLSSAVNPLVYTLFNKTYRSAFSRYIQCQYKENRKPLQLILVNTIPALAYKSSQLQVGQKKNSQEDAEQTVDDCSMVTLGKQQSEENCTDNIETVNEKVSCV
Transporter, sequence (Q63380 whole entry): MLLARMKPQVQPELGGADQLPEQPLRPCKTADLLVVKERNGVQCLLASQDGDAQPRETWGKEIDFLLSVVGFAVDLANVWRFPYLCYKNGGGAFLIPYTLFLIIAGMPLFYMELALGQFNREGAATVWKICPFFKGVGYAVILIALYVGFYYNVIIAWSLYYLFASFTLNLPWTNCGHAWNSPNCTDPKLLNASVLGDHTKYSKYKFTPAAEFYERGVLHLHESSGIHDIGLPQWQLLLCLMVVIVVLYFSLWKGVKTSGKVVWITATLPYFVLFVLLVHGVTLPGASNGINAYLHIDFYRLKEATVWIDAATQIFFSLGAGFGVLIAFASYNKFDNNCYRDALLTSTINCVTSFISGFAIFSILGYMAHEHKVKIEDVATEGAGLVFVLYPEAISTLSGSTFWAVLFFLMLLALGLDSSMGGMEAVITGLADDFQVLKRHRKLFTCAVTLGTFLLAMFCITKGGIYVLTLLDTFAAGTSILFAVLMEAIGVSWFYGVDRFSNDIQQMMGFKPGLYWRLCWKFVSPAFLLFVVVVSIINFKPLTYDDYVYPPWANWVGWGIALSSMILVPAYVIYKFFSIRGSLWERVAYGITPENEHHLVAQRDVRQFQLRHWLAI
Sodium-dependent serotonin transporter, sequence (P31652 whole entry): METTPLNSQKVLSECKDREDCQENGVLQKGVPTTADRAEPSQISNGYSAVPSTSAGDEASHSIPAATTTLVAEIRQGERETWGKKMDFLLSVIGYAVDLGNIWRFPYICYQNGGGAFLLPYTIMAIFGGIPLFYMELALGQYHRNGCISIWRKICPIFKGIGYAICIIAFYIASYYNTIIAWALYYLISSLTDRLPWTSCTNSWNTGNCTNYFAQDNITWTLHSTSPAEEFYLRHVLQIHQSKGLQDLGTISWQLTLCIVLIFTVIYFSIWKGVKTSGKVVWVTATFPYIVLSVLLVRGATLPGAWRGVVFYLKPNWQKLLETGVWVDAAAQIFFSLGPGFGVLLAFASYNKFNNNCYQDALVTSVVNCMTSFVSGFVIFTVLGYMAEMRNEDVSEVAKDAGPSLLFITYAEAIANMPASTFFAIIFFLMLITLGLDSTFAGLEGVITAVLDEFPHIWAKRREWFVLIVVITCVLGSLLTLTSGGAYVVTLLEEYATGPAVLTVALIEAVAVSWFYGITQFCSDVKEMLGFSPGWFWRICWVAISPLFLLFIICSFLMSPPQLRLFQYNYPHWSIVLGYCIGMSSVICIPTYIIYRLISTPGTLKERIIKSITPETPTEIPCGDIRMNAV
Voltage-gated inwardly rectifying potassium channel KCNH2, sequence (Q12809 whole entry): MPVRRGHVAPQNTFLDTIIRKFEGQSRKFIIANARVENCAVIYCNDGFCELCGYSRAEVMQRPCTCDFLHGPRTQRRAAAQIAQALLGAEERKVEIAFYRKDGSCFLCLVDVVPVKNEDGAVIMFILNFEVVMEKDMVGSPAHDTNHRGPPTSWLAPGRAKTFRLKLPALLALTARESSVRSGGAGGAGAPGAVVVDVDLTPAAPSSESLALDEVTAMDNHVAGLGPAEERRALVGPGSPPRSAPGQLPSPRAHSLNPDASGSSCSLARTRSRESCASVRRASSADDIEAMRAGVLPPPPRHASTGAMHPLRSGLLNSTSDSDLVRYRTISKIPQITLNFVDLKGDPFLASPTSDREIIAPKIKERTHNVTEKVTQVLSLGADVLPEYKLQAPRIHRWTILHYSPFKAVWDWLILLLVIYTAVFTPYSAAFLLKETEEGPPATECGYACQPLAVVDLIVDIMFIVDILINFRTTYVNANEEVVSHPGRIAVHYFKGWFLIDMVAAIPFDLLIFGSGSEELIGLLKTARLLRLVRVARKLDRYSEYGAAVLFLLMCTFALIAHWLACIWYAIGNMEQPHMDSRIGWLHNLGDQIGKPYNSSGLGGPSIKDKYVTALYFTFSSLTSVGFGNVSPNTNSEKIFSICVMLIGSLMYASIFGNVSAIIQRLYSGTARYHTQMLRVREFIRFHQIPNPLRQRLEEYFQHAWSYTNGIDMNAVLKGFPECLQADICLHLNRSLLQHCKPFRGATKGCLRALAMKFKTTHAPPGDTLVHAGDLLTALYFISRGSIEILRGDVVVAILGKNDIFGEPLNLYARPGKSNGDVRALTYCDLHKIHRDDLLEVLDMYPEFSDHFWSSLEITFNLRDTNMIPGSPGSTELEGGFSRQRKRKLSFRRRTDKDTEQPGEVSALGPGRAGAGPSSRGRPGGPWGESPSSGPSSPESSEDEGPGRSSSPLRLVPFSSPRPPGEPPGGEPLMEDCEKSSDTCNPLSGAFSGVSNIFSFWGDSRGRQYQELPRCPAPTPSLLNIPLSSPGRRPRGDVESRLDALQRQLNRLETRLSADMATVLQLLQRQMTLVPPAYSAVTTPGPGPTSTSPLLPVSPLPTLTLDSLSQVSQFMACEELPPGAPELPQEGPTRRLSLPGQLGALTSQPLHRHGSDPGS
T4 sequence (P28223 whole entry): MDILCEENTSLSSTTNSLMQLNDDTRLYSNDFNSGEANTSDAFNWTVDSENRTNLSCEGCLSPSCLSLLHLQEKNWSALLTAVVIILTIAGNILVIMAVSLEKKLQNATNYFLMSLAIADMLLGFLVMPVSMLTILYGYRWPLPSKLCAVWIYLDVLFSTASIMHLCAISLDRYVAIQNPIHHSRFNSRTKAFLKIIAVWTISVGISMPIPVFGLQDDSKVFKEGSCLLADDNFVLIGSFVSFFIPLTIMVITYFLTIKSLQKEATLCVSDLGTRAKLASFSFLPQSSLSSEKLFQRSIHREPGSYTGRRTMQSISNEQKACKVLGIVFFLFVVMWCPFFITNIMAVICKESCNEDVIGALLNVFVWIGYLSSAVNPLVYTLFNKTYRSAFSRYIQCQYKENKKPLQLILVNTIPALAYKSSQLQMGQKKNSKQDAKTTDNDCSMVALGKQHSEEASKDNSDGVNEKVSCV
Sodium-dependent serotonin transporter (Rattus norvegicus), sequence (P31652 whole entry): as the sequence (P31652 whole entry) above

Turning to `COc1ccccc1C(CCN(C)C)Oc1cccc2c1OCO2` (stereo unspecified), the Ki was 221 nM in [1] and 253 nM in data set [2].
The corresponding values for `CN(C)CCC(Oc1cccc2c1OCO2)c1ccccc1` (stereo unspecified) are 98.4 nM and 29.4 nM.
Regarding `Cc1cc2c(cc1Cl)N(C(=O)Nc1ccc(Oc3cccnc3C)nc1)CC2` [SB-242084], the IC50 in [3] was found to be 19.7 nM. In data set [4], this compound gave an Activity of 98.6%.
In the case of `CN(C)CCC(Oc1cccc2c1OCO2)c1cccc(F)c1` (stereo unspecified), the Ki is 1130 nM in data set [5]; 15.1 nM in [1]; 63.4 nM in [6]; 3 nM in data set [2]; 89.3 nM in data set [7]. The compound also showed a Ki at 60 min in data set [8] of 549 nM. The compound further yielded an IC50 in data set [9] of 940 nM.
On to `CNCCC(Oc1cccc2c1OCO2)c1ccccc1Cl` (stereo unspecified), for which the Ki in data set [1] was determined as 57.4 nM; in data set [2] it was 26.6 nM.
Turning to `CNCCC(Oc1cccc2c1OCO2)c1ccccc1C` (stereo unspecified), the Ki in data set [1] was found to be 41.2 nM; in data set [2], 13.9 nM.
The corresponding values for `Cc1ccccc1C(CCN(C)C)Oc1cccc2c1OCO2` (stereo unspecified) are 157 nM and 247 nM.
`CN(C)CCC(Oc1cccc2c1OCO2)c1ccc(C(F)(F)F)cc1` (stereo unspecified): the Ki in data set [1] worked out at 182 nM; in data set [2], 124 nM.
On the same counts, the results for `CN(C)CCC(Oc1cccc2c1OCO2)c1ccc(F)c(F)c1` (stereo unspecified) are 237 nM and 139 nM.
On to `CN(C)CCCC1(c2ccc(F)cc2)OCc2cc(C#N)ccc21` (stereo unspecified), for which the Activity in [10] came out at 100%.
Take `CNCCC(Oc1cccc2c1OCO2)c1ccc(OC)c(OC)c1` (stereo unspecified): the Ki in data set [1] was 217 nM; in [2] it was 19.9 nM.
Turning to `CN(C)CCC(Oc1cccc2c1OCO2)c1ccc(F)cc1` (stereo unspecified), the Ki in data set [5] amounted to 1240 nM; in [1], 4.2 nM; in data set [6], 29.6 nM; in data set [2], 2.8 nM; in data set [7], 35.3 nM. This compound registered a Ki at 60 min in [8] of 937 nM. Moreover, the IC50 in data set [9] came out at 1110 nM.
With `CNCCC(Oc1cccc2c1OCO2)c1ccccc1F` (stereo unspecified), the figures for the Ki in data set [1] and in [2] were 84.9 nM and 20.5 nM, respectively.
On the same counts, the results for `CNCCC(Oc1cccc2c1OCO2)c1cccc(C)c1` (stereo unspecified) are 50.6 nM and 20.4 nM.
For `CN(C)CCC(Oc1cccc2c1OCO2)c1ccc2c(c1)OCO2` (stereo unspecified), the Ki in data set [5] worked out at 134 nM; in [1], 9.5 nM; in data set [6], 105 nM; in data set [2], 4.9 nM; in data set [7], 55.1 nM. The compound further yielded a Ki at 60 min in data set [8] of 426 nM. The compound also came in with an IC50 in data set [9] of 371 nM.
With `NCCc1c[nH]c2ccc(O)cc12`, the Activity in data set [11] turned out to be 5.6%.
In the case of `CNCCC(Oc1cccc2c1OCO2)c1ccc(C(F)(F)F)cc1` (stereo unspecified), the Ki in data set [1] turned out to be 74.1 nM; in data set [2], 31.1 nM.
For the compound `CNCCC(Oc1cccc2c1OCO2)c1ccccc1` (stereo unspecified), the inhibition constant Ki in data set [5] stood at 992 nM; in data set [1], 19.8 nM; in data set [6], 134 nM; in [2], 4.2 nM; in data set [7], 156 nM. In data set [8], this compound registered a Ki at 60 min of 669 nM. Also, the IC50 in data set [9] was found to be 818 nM.
Turning to `CNCCC(Oc1cccc2c1OCO2)c1cccc(Cl)c1` (stereo unspecified), the values for the Ki in data set [1] and in [2] were 112 nM and 4.8 nM, respectively.
On the same counts, the results for `CNCCC(Oc1cccc2c1OCO2)c1ccc(OC)cc1` (stereo unspecified) are 109 nM and 25.5 nM.
The corresponding values for `CN(C)CCC(Oc1cccc2c1OCO2)c1ccccc1Cl` (stereo unspecified) are 29.7 nM and 19.5 nM.
The corresponding values for `CN(C)CCC(Oc1cccc2c1OCO2)c1cccc(Cl)c1` (stereo unspecified) are 103 nM and 70.4 nM.
On to `COc1cccc(C(CCN(C)C)Oc2cccc3c2OCO3)c1` (stereo unspecified), for which the Ki in data set [1] amounted to 203 nM; in [2], 268 nM.
The corresponding values for `CNCCC(Oc1cccc2c1OCO2)c1ccc(Cl)c(Cl)c1` (stereo unspecified) are 43.6 nM and 15 nM.
On the same counts, the results for `CNCCC(Oc1cccc2c1OCO2)c1cccc(OC)c1` (stereo unspecified) are 48.2 nM and 11.1 nM.
The corresponding values for `CNCCC(Oc1cccc2c1OCO2)c1ccc(F)cc1` (stereo unspecified) are 68.6 nM and 5.4 nM.
For the compound `CNCCC(Oc1cccc2c1OCO2)c1cccc(F)c1` (stereo unspecified), the Ki amounted to 59.3 nM in [1] and 7.5 nM in data set [2].
The corresponding values for `NCCC(Oc1cccc2c1OCO2)c1ccccc1` (stereo unspecified) are 217 nM and 51 nM.
Take `CNCCC(Oc1cccc2c1OCO2)c1ccc2c(c1)OCO2` (stereo unspecified): the results for the Ki in [1] and in data set [2] were 32.8 nM and 28.4 nM, respectively.
`COc1ccc(C(CCN(C)C)Oc2cccc3c2OCO3)cc1OC` (stereo unspecified): the Ki in data set [1] was determined as 245 nM; in data set [2] it was 222 nM.
As to `CNCCC(Oc1cccc2c1OCO2)c1ccccc1OC` (stereo unspecified), the figures for the inhibition constant (Ki) in data set [1] and in data set [2] were 64.2 nM and 30.2 nM, respectively.
For the compound `CNCCC(Oc1cccc2c1OCO2)c1ccc(F)c(F)c1` (stereo unspecified), the Ki amounted to 96.3 nM in data set [1] and 6.6 nM in data set [2].
The corresponding values for `Cc1cccc(C(CCN(C)C)Oc2cccc3c2OCO3)c1` (stereo unspecified) are 159 nM and 214 nM.
The corresponding values for `CNCCC(Oc1cccc2c1OCO2)c1ccc(Cl)cc1` (stereo unspecified) are 77.3 nM and 14.8 nM.
Take `Cc1ccc(C(CCN(C)C)Oc2cccc3c2OCO3)cc1` (stereo unspecified): the Ki in [1] was determined as 69.7 nM; in data set [2], 195 nM.
On the same counts, the results for `CN(C)CCC(Oc1cccc2c1OCO2)c1ccc(Cl)cc1` (stereo unspecified) are 19.9 nM and 10.4 nM.
The corresponding values for `COc1ccc(C(CCN(C)C)Oc2cccc3c2OCO3)cc1` (stereo unspecified) are 189 nM and 218 nM.
Take `CN(C)CC[C@H](Oc1cccc2c1OCO2)c1ccc(F)cc1`: the Ki in data set [5] turned out to be 988 nM; in [1], 3.3 nM; in [6], 71.2 nM; in [2], 12.7 nM; in [7], 57.7 nM. Besides, in data set [8], the Ki at 60 min came out at 823 nM. The compound also registered an IC50 in data set [9] of 907 nM.
Turning to `CNCCC(Oc1cccc2c1OCO2)c1ccc(C)cc1` (stereo unspecified), the Ki in data set [1] was 17.4 nM; in data set [2], 48.8 nM.
On the same counts, the results for `CN(C)CCC(Oc1cccc2c1OCO2)c1ccc(Cl)c(Cl)c1` (stereo unspecified) are 189 nM and 253 nM.
Compound `O=C(c1ccc(F)cc1)C1CCN(CCn2c(=O)[nH]c3ccccc3c2=O)CC1` came in with an Activity in data set [12] of 98.3%.
As to `CN(C)CCC(Oc1cccc2c1OCO2)c1ccccc1F` (stereo unspecified), the Ki in data set [1] worked out at 28 nM; in data set [2], 17.2 nM.
